Measurements reported in patent US11952554B2, “Alkyl polyglycoside-containing cleaning formulations for chemically sensitive individuals” (Living Clean NZ, Ltd., priority 2021, dated 2024).
Each block holds one compound with its values, some of them ahead of it.

Tests used:
[1] = tested on: chemically sensitive individuals (MCS); set-up: species or system human; conditions: in vivo
Description: Once candidate ingredients are identified and tested as described above, they are evaluated for use in potential cleaning formulations using a blind study protocol. The blind studies used in the course of the instant work were comprised of a specially selected panel of volunteers. […] A panel comprised of just such individuals was used for many aspects of the studies conducted herein. […] See E. A. Krusemark and W. Li, “Enhanced olfactory sensory perception of threat in anxiety: An event-related fMRI study,” Chemosensory Perception, 5 (2012) 37-45; the article in its entirely is herein incorporated by reference.
In the course of the instant work, at least one individual with MCS was used to rank prospective ingredients for acceptability in cleaning formulations based upon sensory responses, which included olfactory as well as skin contact. Instrumental analyses were then implemented to correlate results with sensory ratings from the human panel, and to identify and/or quantify the chemicals detected and deemed to be potentially harmful to humans. Ingredients that were deemed acceptable by the human panel and the instrumental analyses were then used as raw materials for cleaning products described herein. It is believed that this level of pre-screening and testing represents a first in the world for consumer cleaning product formulations work, and has provided an unprecedented level of safety testing for consumer products. Accordingly, in one aspect of the technology newly presented and described herein, a method for providing cleaning formulations for use by the general public and chemically-sensitized individuals, in particular, involves:
Without being bound by theory, it is believed that this phenomenon is due to the non-exact nature of the BCI or RCI measurement (±3% by weight) vis-à-vis the low amounts of contaminants, perhaps much less than 1% by weight, that are present in certain ingredients. To test this hypothesis, a number of chemically sensitive individuals assessed four types of alkyl polyglucosides, or APGs, from three manufacturers, all of which have an apparent BCI/RCI of 100%. Each of the APG candidates was rated on a 3-point index: Acceptable, Marginal, and Unacceptable. The Marginal and Unacceptable candidates were then analyzed for the presence of trace contaminants.
In the manufacture of surfactants, it can be assumed that a small amount, albeit a significant one, of feedstock remains unreacted. This amount can often be less than 1% by weight, but to individuals who are sensitive to such species, the impact can be significant. […] As such, a number of raw materials were evaluated by a number of chemically sensitive individuals for acceptability using the same scale as above.

[2] = cited from earlier work

Acceptability Rating [1]: Unacceptable
Compound: C8-10 alkyl polyglucoside

Acceptability Rating [1]: Acceptable
Compound: Sodium coco sulfate

Second part, the compound before the results:

Compound: CCCCCCCCOS(=O)(=O)[O-].[Na+] [Sodium octyl sulfate (from bio-basis), Sodium octyl sulfate]
Acceptability Rating [1]: Unacceptable

Compound: ClC(Cl)Cl [Trichloromethane (chloroform), Trichloromethane]
CAA-HAP listing ([2]; Clean Air Act-Hazardous Air Pollutant): ✓
CAA-TFS listing ([2]; Clean Air Act-Toxic and Flammable Substances for Accidental Release Prevention): ✓
CWA listing ([2]; Clean Water Act-Priority Pollutant): ✓
CERCLA listing ([2]; Comprehensive Environmental Response, Compensation, and Liability Act-Hazardous Substance): ✓
EPCRA listing ([2]; Emergency Planning & Community Right to Know Act-Toxic Release Inventory Chemical): ✓
OSHA listing ([2]; Occupational Safety and Health Act-Air Contaminants): ✓
RCRA listing ([2]; Resource Conservation and Recovery Act-Hazardous Constituents): ✓

Compound: C10-16 alkyl polyglucoside
Acceptability Rating [1]: Acceptable-
